From the supplement of paper PMC9663587

Experiments:
[1] = compound: CO[C@@H](C)Cn1c(=O)n(C)c2cnc3ccc(-c4cncc(C(C)(C)O)c4)cc3c21
[2] = compound: T1, CN1CC[C@H](c2c(O)cc(O)c3c(=O)cc(-c4ccccc4Cl)oc23)[C@H](O)C1 [Flavopiridol]
[3] = compound: Cc1nc(-c2cn3c(n2)-c2ccc(-c4cnn(C(C)(C)C(N)=O)c4)cc2OCC3)n(C(C)C)n1 [Taselisib/GDC0032]
[4] = compound: CN1CCN(CCOc2cc(OC3CCOCC3)c3c(Nc4c(Cl)ccc5c4OCO5)ncnc3c2)CC1 [Saracatinib/AZD0530]
[5] = compound: C=CC(=O)Nc1ccc(C(=O)Nc2[nH]nc3c2CN(C(=O)N[C@H](CN(C)C)c2ccccc2)C3(C)C)cc1 [YKL-5-124]; experiment: GR value, 72 h; higher = faster growth (1 = untreated, <0 = killing);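 note: breast cancer and non-malignant breast epithelial lines, nine half-log doses, viable cells counted by Hoechst and LIVE/DEAD dye imaging versus time-zero plates and DMSO controls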
[6] = compound: T1, Flavopiridol; experiment: as above
[7] = compound: CC(=O)c1c(C)c2cnc(Nc3ccc(N4CCNCC4)cn3)nc2n(C2CCCC2)c1=O; experiment: as above
[8] = compound: CC(=O)c1c(C)c2cnc(Nc3ccc(N4CCN(CCOCCOCCOCCNC(=O)COc5cccc6c5C(=O)N(C5CCC(=O)NC5=O)C6=O)CC4)cn3)nc2n(C2CCCC2)c1=O [BSJ-03-123]; experiment: as above
[9] = compound: CCc1cnn2c(NCc3ccc[n+]([O-])c3)cc(N3CCCC[C@H]3CCO)nc12; experiment: as above
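Throughout, for GR50, 72 h: breast cancer and non-malignant breast epithelial cell lines, Deep Dye Drop or Dye Drop imaging, nine half-log doses, GR normalized to time-zero plates and DMSO-only controls.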

In the case of HCC1187, the “GR50, 72 h” value [1] is reported as 1.12 µM, the “GR50, 72 h” value [2] is reported as 0.237 µM and the “GR50, 72 h” value [3] is reported as 0.168 µM. For the same cell line, the “GR50, 72 h” value [4] was 0.258 µM, the GR value ([5]; 0.001 µM) was 0.478 GR and the GR value ([5]; 0.003162 µM) was 0.459 GR. It also gave a GR value ([5]; 0.01 µM) of 0.209 GR, a GR value ([5]; 0.03162 µM) of 0.309 GR and a GR value ([5]; 0.1 µM) of 0.195 GR. For the same cell line, the GR value ([5]; 0.3162 µM) was 0.222 GR, the GR value ([5]; 1 µM) was 0.0281 GR and the GR value ([5]; 3.162 µM) was -0.0235 GR. The GR value ([5]; 10 µM) was -0.529 GR, the GR value ([6]; 0.0001 µM) was 0.966 GR and the GR value ([6]; 0.0003162 µM) was 0.963 GR. For the same cell line, the GR value ([6]; 0.001 µM) was 0.368 GR, the GR value ([6]; 0.003162 µM) was 1 GR and the GR value ([6]; 0.01 µM) was 0.995 GR. For the same cell line, the GR value ([6]; 0.03162 µM) was 0.961 GR, the GR value ([6]; 0.1 µM) was 0.805 GR and the GR value ([6]; 0.3162 µM) was -0.16 GR. It also gave a GR value ([6]; 1 µM) of -0.885 GR, a GR value ([7]; 0.0003162 µM) of 0.999 GR and a GR value ([7]; 0.001 µM) of 1.05 GR. It also gave a GR value ([7]; 0.003162 µM) of 1.04 GR, a GR value ([7]; 0.01 µM) of 0.985 GR and a GR value ([7]; 0.03162 µM) of 1.05 GR. It also gave a GR value ([7]; 0.1 µM) of 1.09 GR, a GR value ([7]; 0.3162 µM) of 1.02 GR and a GR value ([7]; 1 µM) of 1.09 GR. The GR value ([7]; 3.162 µM) was 0.993 GR, the GR value ([8]; 0.001 µM) was 0.987 GR and the GR value ([8]; 0.003162 µM) was 0.865 GR. It also gave a GR value ([8]; 0.01 µM) of 0.969 GR, a GR value ([8]; 0.03162 µM) of 0.935 GR and a GR value ([8]; 0.1 µM) of 0.956 GR. The GR value ([8]; 0.3162 µM) was 0.882 GR, the GR value ([8]; 1 µM) was 0.743 GR and the GR value ([8]; 3.162 µM) was 0.621 GR. It also gave a GR value ([8]; 10 µM) of -0.43 GR, a GR value ([9]; 0.0001 µM) of 0.988 GR and a GR value ([9]; 0.0003162 µM) of 1 GR. For the same cell line, the GR value ([9]; 0.001 µM) was 1.08 GR, the GR value ([9]; 0.003162 µM) was 0.985 GR and the GR value ([9]; 0.01 µM) was 0.471 GR. It also gave a GR value ([9]; 0.03162 µM) of -0.689 GR.
